Source: patent US20220031853A1, “HSP90-TARGETING CONJUGATES AND FORMULATIONS THEREOF” (TARVEDA THERAPEUTICS, INC., priority 2018, published 2022)

Legend:
[1] = molecular target: T1, purified recombinant HSP90a (Homo sapiens, UniProt P07900); assay: HSP90a Assay Kit, fluorescence polarization competition with fluorescently labeled geldanamycin; details: read-out: HSP90 Binding Kd
T1 construct: purchased
Protocol: The bindings of the conjugates to HSP90 were studied with the HSP90a Assay Kit. The HSP90a Assay Kit is designed for identification of HSP90a inhibitors using fluorescence polarization. The assay is based on the competition of fluorescently labeled geldanamycin for binding to purified recombinant HSP90a. The key to the HSP90a Assay Kit is the fluorescently labeled geldanamycin. The fluorescently labeled geldanamycin is incubated with a sample containing HSP90a enzyme to produce a change in fluorescent polarization that can then be measured using a fluorescence reader.

[2] = test system: HCT-116 (colon) tumor cells; assay: Tumor cell cytotoxicity assay (CellTiter-Glo), HCT-116; format: cell-based; details: Homo sapiens; HCT-116 cells, 72 hrs, CellTiter-Glo ATP levels; read-out: in vitro cytotoxicity IC50
Protocol: (§1) Tumor cells were plated at 500-5,000 cells per well and incubated for 20-24 hrs at 37 °C at 5% CO2. Post cell incubation, compounds were reconstituted in DMSO to a stock concentration of 200 uM. A compound plate was then prepared containing a 10 point dilution in RPMI+10% FBS+0.25% DMSO. 5 uL of the dilution was then added for a final working concentration range of 10 uM to 0.0005 uM. Compounds and cells were then incubated for up to 72 hrs. Cells were then analyzed by CellTiter-Glo for ATP levels and percent inhibition calculated.
as §1, with “BT474 (breast), LS174T (colon), or HCT-116 (colon) tumor” for “Tumor”, “2500” for “500-5,000”, “for” for “for up to”

[3] = test system: BT474 (breast) tumor cells; assay: Tumor cell cytotoxicity assay (CellTiter-Glo), BT474; format: cell-based; details: Homo sapiens, BT-474, 72 hrs, CellTiter-Glo ATP levels, read-out: in vitro cytotoxicity IC50
Protocol: as §1
as §1, with “BT474 (breast), LS174T (colon), or HCT-116 (colon) tumor” for “Tumor”, “2500” for “500-5,000”, “for” for “for up to”

[4] = test system: NCI-H460 cells (non-small cell lung cancer); assay: Tumor cell cytotoxicity assay (CellTiter-Glo), NCI-H460; format: cell-based; details: Homo sapiens, 48 hrs, CellTiter-Glo ATP levels, read-out: in vitro cytotoxicity IC50
Protocol: as §1
NCI-H460 cells (non-small cell lung cancer) were plated at 500 cells per well and incubated for 20-24 hrs at 37° C. at 5% CO2. Post cell incubation, compounds were reconstituted in DMSO to a stock concentration of 200 uM. A compound plate was then prepared containing a 10 point dilution in RPMI+10% FBS+0.25% DMSO. 5 uL of the dilution was then added for a final working concentration range of 10 uM to 0.0005 uM. Compounds and cells were then incubated for 48 hrs. Cells were then analyzed by CellTiter-Glo for ATP levels and percent inhibition calculated.

[5] = test system: LS174T (colon) tumor cells; assay: Tumor cell cytotoxicity assay (CellTiter-Glo), LS174T; format: cell-based; details: Homo sapiens, 72 hrs, CellTiter-Glo ATP levels, read-out: in vitro cytotoxicity IC50
Protocol: as §1
as §1, with “BT474 (breast), LS174T (colon), or HCT-116 (colon) tumor” for “Tumor”, “2500” for “500-5,000”, “for” for “for up to”

Row | SMILES | Kd [1] [µM] | IC50 [2] [µM] | IC50 [3] [µM] | IC50 [4] [µM] | IC50 [5] [µM]
1 | CCNC(=O)c1nnc(-c2cc(C(C)C)c(O)cc2O)n1-c1ccc(CN2CCN(C(=O)Cc3ccc(OC(=O)N4CCN(c5ccc(-n6c(=O)n(C)c7cnc8ccc(-c9ccc(OC)nc9)cc8c76)cc5C(F)(F)F)CC4)cc3)CC2)cc1 [Compound 22] | 0.00079 | – | – | – | –
2 | CCNC(=O)c1nnc(-c2cc(C(C)C)c(O)cc2O)n1-c1ccc(CN2CCN(C(=O)Cc3ccc(OC(=O)N(CC)C4CCN(C(=O)c5ccc(NC(=O)Nc6ccc(-c7nc(N8CCOCC8)nc(N8CCOCC8)n7)cc6)cc5)CC4)cc3)CC2)cc1 [Compound 18] | – | 0.246 | 1.64 | 0.389 | 3.37
3 | CCNC(=O)c1nnc(-c2cc(C(C)C)c(O)cc2O)n1-c1ccc(CN2CCN(C(=O)[C@H](N)Cc3ccc(OC(=O)N4CCN(c5ccc(-n6c(=O)n(C)c7cnc8ccc(-c9ccc(OC)nc9)cc8c76)cc5C(F)(F)F)CC4)cc3)CC2)cc1 [Compound 26] | 0.00122 | – | – | – | –
